Results: publication PMC13586173, “Synthetic cannabinoid receptor agonists inhibit the cardiac voltage-gated potassium channel hERG” (Acta Pharmacologica Sinica, 2026)
“And” between values parts separate entries of the source, which are not always exact repeats. Identical values can stand only once. “Also recorded” adds a separate entry of the source. Like-named read-outs stand apart in the source and are kept apart here.

Columns and labels:
[1] = biological target: T1, human CB1 receptor (Homo sapiens, UniProt P21554); assay: AequoScreen intracellular calcium release assay, CHO-K1 cells stably expressing CB1; assay type: cell-based
T1 construct: host or cells: CHO-K1 stably expressing CB1, apoaequorin and Gα16

[2] = biological target: hERG (KV11.1) (Homo sapiens, UniProt Q12809); assay: Automated planar patch-clamp (APC, QPatch II 48), voltage-ladder protocol, CHO cells stably expressing human hERG; conditions: for hERG channel Efficacy (max reduction in Gmax) Gmin: 0 = complete reduction; for effect on Gmax of hERG (in words): APC concentration-response, 1.11 to 30 µM
Excerpt: To assess the effect of a large set of SCRAs on hERG (see SI Table I and SI Fig. S1 for a list of the 36 included SCRAs and corresponding structures), we used the automated planar patch-clamp (APC) technique on mammalian Chinese hamster ovary (CHO) cells stably expressing human hERG. […] We employed a voltage-ladder protocol to obtain information on SCRA effects on the channel’s voltage dependence of activation (V50) and maximal conductance (Gmax) (both determined from Boltzmann fits of the instantaneous tail currents; see Methods for details).
Stably expressing cell lines “CHO-hERG DUO” (here referred to as hERG; gene: KCNH2) and “CHO-KVLQT1/mink” (here referred to as KV7.1/KCNE1; gene: KCNQ1/KCNE1), (B’SYS GmBH, Witterswil, Switzerland) were used to study whole-cell K^+ currents on a QPatch II 48 APC system (Sophion Bioscience A/S, Ballerup, Denmark). Cell culture and passaging were performed in accordance with standard operating procedures. Cells were harvested in serum-free medium with Detachin^TM (Genlantis, CA, USA) immediately prior to experiments. For MPC on transient cell lines, CHO-K1 CCL-61 cells (ATCC, Manassas, VA, USA) were cultured in Ham’s F-12 medium supplemented with 10% fetal bovine serum (FBS) and 100 U/mL penicillin–100 µg/mL streptomycin (Gibco, Thermo Fisher Scientific, Waltham, MA, USA). Transfection was carried out using JetOPTIMUS® reagent (Polyplus, Strasbourg, France) according to the manufacturer’s protocol. Briefly, 80,000 cells were seeded per well in a 12-well plate and transfected with 300 ng of pcDNA3-GFP plasmid, 700 ng of pcDNA3-hERG plasmid with either the wild-type or mutant channels (S624A, S649A, or Y652A), and […] of JetOPTIMUS. After 8 h, cells were detached and reseeded at a density of 30,000 cells per well onto several poly-D-lysine-coated glass coverslips placed in a 12-well plate. For the CB1 receptor activity assay, the AequoScreen® recombinant Chinese hamster ovary (CHO) K1 cell line, stably expressing the human CB1 receptor (ES-110-A), was used (Revvity, Sollentuna, Sweden).
Automated patch-clamp recordings were performed at 22 °C. Freshly harvested cell suspensions (2–3 million cells/mL) were prepared for experiments by the QPatch II 48 automated cell preparation unit. Cells were centrifuged for 150 s at 150 × g and washed twice with the extracellular recording solution. Cells were handled by the integrated pipetting robot and added to the 48 experiment sites on the planar patch-clamp consumable QPlate. Each experiment site contained an individual pair of recording electrodes and a silicon/glass biochip embedded in the flow channels. Single-cell patch recordings (n = 1 is defined as one single-cell patch) and population patch recordings (up to 10 cells per well, n = 1 is defined as one population patch) were performed for hERG and for KV7.1/KCNE1, respectively. Cells were applied, positioned and sealed to the patch holes by a mild suction protocol; whole-cell access was then achieved by a stronger suction pulse.
The intracellular solution contained (in mM): 100 KCl, 4.3 CaCl2, 1.4 MgCl2, 25/10 KOH/EGTA, 24 KF, 10 HEPES, and 4 Mg-ATP (hERG) or 4 Na-ATP (KV7.1/KCNE1). […] The compounds were pre-diluted in DMSO, and the final concentration of DMSO (0.3%) was equal in all recording solutions to control for vehicle effects. The compounds made no contact with plastics following dilution in extracellular solution.
An overview of experimental conditions is provided in SI Table VII, Square voltage pulses in a voltage ladder protocol were used to study current/voltage (I(V)) relationships. Each voltage protocol was first run three times in the presence of vehicle (extracellular solution supplemented with 0.3% DMSO), the 3rd serving as the baseline. Voltage protocols were repeated in the presence of 4 cumulatively rising concentrations of test compound, followed by application of vehicle for recovery.

[3] = biological target: KV7.1/KCNE1 (Homo sapiens, UniProt P51787); assay: Automated patch-clamp (APC, population patch), CHO cells stably expressing human KV7.1/KCNE1; assay type: cell-based; conditions: for KV7.1/KCNE1 channel Efficacy (max reduction in Gmax) Gmin, marked *: * Greatest efficacy achieved with a concentration between 10 and 30 µM (no fit); for Gmax effect on hERG versus KV7.1/KCNE1 (in words): 10 µM, both channels by APC; for KV7.1/KCNE1 channel Efficacy (max reduction in Gmax) Gmin: 1 = no reduction of Gmax, 0 = complete reduction
Method: Both hERG and KV7.1/KCNE1 contribute to cardiomyocyte repolarization (Fig. 1g). Inhibition of KV7.1/KCNE1 alone can be proarrhythmic. Moreover, under conditions with impaired hERG function, upregulation of KV7.1/KCNE1 has been proposed to partially compensate for the loss of hERG [38, 39]. […] To assess if SCRAs also affect KV7.1/KCNE1, we used mammalian CHO cells stably expressing human KV7.1/KCNE1. […] At 10 µM, 7 of the SCRAs caused a significant positive shift in V50 (Fig. 5e), with the largest shift induced by MDMB-[…] (ΔV50 = +10.3 ± 1.6 mV).
Automated patch-clamp recordings were performed at 22 °C.
For the KV7.1/KCNE1 voltage ladder protocol (SI Table VII) the solutions were present for 60 s before recording started. KV7.1/KCNE1 cells were kept at a holding voltage of −90 mV, with brief hyperpolarizing steps to −100 mV for 540 ms (to calculate ohmic leakage). […] The time between compound application and the first voltage protocol was 60 s. Time between sweeps was 15 s. The voltage ladder protocol was executed every 220 s.
For Gmax (rel.), N was set to –1. For ΔV50, N was set to 1.

[4] = read-out: CB1 receptor Potency EC50
[5] = best fit, 1 = no reduction of Gmax, APC, 22 °C
[6] = read-out: hERG channel Potency IC50 (Gmax reduction), APC, 22 °C, best fit
[7] = normalized to maximum of JWH-018, n ≥ 3 (JWH-030 n = 2)
[8] = normalized to median EC50 of JWH-018, n ≥ 3 (JWH-030 n = 2), read-out: CB1 receptor Potency EC50
[9] = CB1 receptor Potency EC50, normalized to median EC50 of JWH-018, n ≥ 3 (JWH-030 n = 2)
[10] = APC, best fit, read-out: KV7.1/KCNE1 channel Potency IC50 (Gmax reduction)
[11] = experimentally observed effect of 10 µM, used in ORd simulation

T1 sequence (P21554 whole entry): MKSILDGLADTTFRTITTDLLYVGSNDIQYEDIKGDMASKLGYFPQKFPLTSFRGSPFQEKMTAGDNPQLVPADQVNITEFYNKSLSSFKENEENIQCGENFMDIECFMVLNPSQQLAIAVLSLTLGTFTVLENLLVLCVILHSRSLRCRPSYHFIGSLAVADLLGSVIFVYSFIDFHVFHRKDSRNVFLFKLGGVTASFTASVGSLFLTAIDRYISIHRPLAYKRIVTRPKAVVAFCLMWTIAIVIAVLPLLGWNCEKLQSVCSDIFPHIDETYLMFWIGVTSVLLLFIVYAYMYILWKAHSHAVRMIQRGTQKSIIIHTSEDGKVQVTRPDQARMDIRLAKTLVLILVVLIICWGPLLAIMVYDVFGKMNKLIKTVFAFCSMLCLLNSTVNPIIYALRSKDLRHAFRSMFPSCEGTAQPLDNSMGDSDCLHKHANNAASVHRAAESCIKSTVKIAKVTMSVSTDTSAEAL
Sequence of KV7.1/KCNE1 (P51787 whole entry): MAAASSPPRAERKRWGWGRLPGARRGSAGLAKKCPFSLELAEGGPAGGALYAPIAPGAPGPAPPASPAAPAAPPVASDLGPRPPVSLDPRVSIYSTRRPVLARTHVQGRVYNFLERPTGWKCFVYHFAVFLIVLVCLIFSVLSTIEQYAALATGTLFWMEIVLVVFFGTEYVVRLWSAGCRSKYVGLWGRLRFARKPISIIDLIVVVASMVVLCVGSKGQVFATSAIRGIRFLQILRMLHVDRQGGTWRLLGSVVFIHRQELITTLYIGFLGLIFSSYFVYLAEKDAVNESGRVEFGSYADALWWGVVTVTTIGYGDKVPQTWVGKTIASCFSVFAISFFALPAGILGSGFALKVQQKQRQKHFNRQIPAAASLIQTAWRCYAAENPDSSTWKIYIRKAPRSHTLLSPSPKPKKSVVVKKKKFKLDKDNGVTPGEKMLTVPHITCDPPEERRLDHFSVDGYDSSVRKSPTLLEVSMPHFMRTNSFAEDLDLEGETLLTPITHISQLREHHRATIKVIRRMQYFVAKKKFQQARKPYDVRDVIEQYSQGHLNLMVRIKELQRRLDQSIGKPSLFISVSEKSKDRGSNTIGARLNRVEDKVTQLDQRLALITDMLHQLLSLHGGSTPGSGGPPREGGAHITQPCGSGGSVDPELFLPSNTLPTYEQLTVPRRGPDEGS
Sequence of hERG (KV11.1) (Q12809 whole entry): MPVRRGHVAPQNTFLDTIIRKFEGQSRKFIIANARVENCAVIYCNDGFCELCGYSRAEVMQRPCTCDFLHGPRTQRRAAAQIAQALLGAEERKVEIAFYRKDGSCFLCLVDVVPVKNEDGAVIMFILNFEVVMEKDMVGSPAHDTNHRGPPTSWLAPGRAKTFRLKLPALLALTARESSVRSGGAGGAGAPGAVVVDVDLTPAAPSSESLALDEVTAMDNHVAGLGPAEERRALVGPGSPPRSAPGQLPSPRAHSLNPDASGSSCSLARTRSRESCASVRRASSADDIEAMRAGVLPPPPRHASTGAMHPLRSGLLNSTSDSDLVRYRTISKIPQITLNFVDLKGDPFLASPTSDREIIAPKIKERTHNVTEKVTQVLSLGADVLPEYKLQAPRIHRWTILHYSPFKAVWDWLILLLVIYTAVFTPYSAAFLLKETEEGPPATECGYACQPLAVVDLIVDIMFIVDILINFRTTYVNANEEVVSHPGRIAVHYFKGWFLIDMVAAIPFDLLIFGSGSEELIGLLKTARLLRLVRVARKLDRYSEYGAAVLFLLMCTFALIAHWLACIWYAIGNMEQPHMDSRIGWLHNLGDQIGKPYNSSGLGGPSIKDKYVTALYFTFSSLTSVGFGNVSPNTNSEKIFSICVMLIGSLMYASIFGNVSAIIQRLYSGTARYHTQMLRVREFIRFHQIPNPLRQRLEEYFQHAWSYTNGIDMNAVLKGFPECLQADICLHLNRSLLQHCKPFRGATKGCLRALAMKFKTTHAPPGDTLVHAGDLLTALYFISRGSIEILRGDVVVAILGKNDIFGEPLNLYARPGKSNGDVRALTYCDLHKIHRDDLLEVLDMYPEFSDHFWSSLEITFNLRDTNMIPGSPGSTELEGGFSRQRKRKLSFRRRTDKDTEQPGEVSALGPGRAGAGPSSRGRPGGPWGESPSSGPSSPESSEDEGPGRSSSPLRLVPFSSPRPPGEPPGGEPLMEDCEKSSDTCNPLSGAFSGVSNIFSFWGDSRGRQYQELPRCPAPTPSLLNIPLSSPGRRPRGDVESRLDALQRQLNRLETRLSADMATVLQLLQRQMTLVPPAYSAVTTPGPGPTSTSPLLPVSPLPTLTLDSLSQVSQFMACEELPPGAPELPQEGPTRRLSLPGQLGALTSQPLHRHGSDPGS

SMILES | hERG channel Efficacy (max reduction in Gmax) Gmin [2, 5] | IC50 [2, 6] [nM] | KV7.1/KCNE1 channel Efficacy (max reduction in Gmax) Gmin, marked * [3] | CB1 receptor Efficacy Emax [1, 7] [% JWH-018] | EC50 [1, 8] [nM] | KV7.1/KCNE1 channel Efficacy (max reduction in Gmax) Gmin ([3]; best fit) | also measured
CC(C)[C@H](NC(=O)c1nn(CC2CCCCC2)c2ccccc12)C(N)=O | 0.00 | 51200 | 0.72 | – | – | – | CB1 receptor Efficacy Emax [1]: 108 % JWH-018; EC50 [1, 4]: 8.98 nM
CC(C)(C)[C@H](NC(=O)c1nn(CC2CCCCC2)c2ccccc12)C(N)=O | 0.13 | 11300 | 0.93 | – | – | – | CB1 receptor Efficacy Emax [1]: 107 % JWH-018; EC50 [1, 4]: 3.87 nM
COC(=O)[C@@H](NC(=O)c1cn(CCCCF)c2ccccc12)C(C)(C)C [4F-MDMB-BUTICA] | 0.35 | 26200 | 0.87 | 115 | 16.7 | – | –
O=C(N/N=C1\C(=O)N(CCCCCF)c2ccccc21)c1ccccc1 [5F-BZO-POXIZID] | 0.29 | – | 0.83 | 113 | – | – | EC50 [1, 9]: 193 nM; IC50 [2]: 900 nM; effect on Gmax of hERG (in words) [2]: concentration-dependent inhibitory effects on Gmax; also recorded: prominent inhibitory Gmax effects; Gmax effect on hERG versus KV7.1/KCNE1 (in words) [3]: effects only on hERG
CC(C)(NC(=O)c1nn(CCCCCF)c2ccccc12)c1ccccc1 [5F-Cumyl-PINACA] | 0.00 | – | – | 112 | – | 0.13 | EC50 [1, 9]: 2.23 nM and 2.2 nM; IC50 [2]: 15500 nM; IC50 [3]: 43500 nM; effect on KV7.1/KCNE1 (in words) ([3]; APC): well-defined concentration–response relationships for both effects
CC(C)[C@H](NC(=O)c1cn(CC2CCCCC2)c2ccccc12)C(N)=O [AB-CHMICA] | 0.64 | 8200 | – | 110 | 20.1 | 0.46 | IC50 [3, 10]: 16200 nM
CC(C)[C@H](NC(=O)c1nn(Cc2ccc(F)cc2)c2ccccc12)C(N)=O [AB-FUBINACA] | 0.00 | 30400 | – | 108 | 8.94 | 0.15 | IC50 [3, 10]: 40800 nM
C=CCCCn1nc(C(=O)NC(C(N)=O)C(C)(C)C)c2ccccc21 (stereo not shown) [ADB-4en-PINACA] | 0.52 | 9100 | 1.13 | 117 | 17.4 | – | effect on Gmax of hERG (in words) [2]: no or limited effects
CCCCn1nc(C(=O)NC(C(N)=O)C(C)(C)C)c2cc(Br)ccc21 (stereo not shown) [ADB-5'Br-BUTINACA] | 0.36 | 40100 | 0.80 | 110 | 18 | – | –
CC(C)(C)[C@H](NC(=O)c1n[nH]c2ccc(Br)cc12)C(N)=O [ADB-5'Br-INACA] | 0.70 | 24500 | 1.04 | 111 | 2290 | – | effect on Gmax of hERG (in words) [2]: no or limited effects
CC(C)(C)C(NC(=O)c1cn(CC2CCCCC2)c2ccccc12)C(N)=O (stereo not shown) [ADB-CHMICA] | 0.48 | 5200 | – | 110 | 15.7 | 0.4 | IC50 [3, 10]: 13400 nM
CC(C)(C)[C@H](NC(=O)c1nn(Cc2ccc(F)cc2)c2ccccc12)C(N)=O [ADB-FUBINACA] | 0.25 | 13700 | 0.81 | 106 | 4.97 | – | –
CCCCCCn1nc(C(=O)NC(C(N)=O)C(C)(C)C)c2ccccc21 (stereo not shown) [ADB-HEXINACA] | 0.037 | – | – | 117 | – | 0.41 | EC50 [1, 9]: 39.4 nM; IC50 [2]: 15800 nM; remaining IKr (hERG Gmax) [2, 11]: 63%; IC50 [3]: 1990 nM; remaining IKs (KV7.1/KCNE1 Gmax) [3, 11]: 52%
O=C(c1cccc2ccccc12)c1cn(CCCCCF)c2ccccc12 [AM-2201] | 0.38 | 1300 | 0.92 | 99.7 | 25.8 | – | Gmax effect on hERG versus KV7.1/KCNE1 (in words) [3]: effects only on hERG
CCCCCn1nc(C(=O)NC23CC4CC(CC(C4)C2)C3)c2ccccc21 [APINACA] | – | – | 0.88 | 108 | 30.4 | – | hERG channel Efficacy (max reduction in Gmax) Gmin, marked * ([2]; * Greatest efficacy achieved with a concentration between 10 and 30 µM (no fit), 1 = no reduction of Gmax): 0.90; effect on Gmax of hERG (in words) [2]: non-inhibitor
C=CCCCN1C(=O)/C(=N\NC(=O)c2ccccc2)c2ccccc21 [BZO-4en-POXIZID] | 0.64 | – | 0.79 | 112 | – | – | EC50 [1, 9]: 1700 nM; IC50 [2]: 3900 nM; effect on Gmax of hERG (in words) [2]: concentration-dependent inhibitory effects on Gmax
CCCCCCN1C(=O)C(=NNC(=O)c2ccccc2)c2ccccc21 [BZO-HEXOXIZID] | – | – | – | 84.3 | 5130 | 0.44 | CB1 EC50 (in words) [1]: low micromolar; hERG channel Efficacy (max reduction in Gmax) Gmin, marked ? ([2]; ? Unreliable values (fit failed QC, extrapolated)): 0.00; IC50 [3, 10]: 3000 nM
